# Assay results from US10111902B2, “Polymers for reversing heparin-based anticoagulation” (University of British Columbia, priority 2011, dated 2018).
# Tests used:
# Tinzaparin = experiment: LMWH Tinzaparin neutralization in living rats (anti-Xa assay); format: in vivo, rat; settings: 25 U Tinzaparin, then about 1 mg polymer or protamine (3 mg/kg)
# Protocol: The present example examines heparin binding polymer effectiveness in vivo. HBSPCM polymers were tested for their ability to neutralize UFH and LMWH in living rats. Rats were first injected with heparin or heparin derivative, and then injected with the JNK-1 polymers, protamine or saline control to neutralize the previously administered heparin or heparin derivative. Neutralization was measured by detecting the percentage of factor Xa using an anti-Xa assay as a measure of anticoagulant activity.
# In addition, Enoxaparin alone and JNK-1 polymers+Enoxaparin were compared (FIG. 8C). An anti-Xa assay was used to measure heparin activity in rat blood. In this pilot study, rats were injected with 25 U of UFH, Tinzaparin or Enoxaparin (0 minutes). Blood was collected after UFH, Tinzaparin, or Enoxaparin infusion (5 minutes). Approximately 1 mg of JNK-1 polymers or protamine (dose was 3 mg/kg) was injected at 7 minutes and the blood was collected at 12 minutes after UFH/Tinzaparin/Enoxaparin infusion (5 minutes after JNK-1 infusion), and 17 minutes (10 minutes after JNK-1 polymer infusion). For subjects receiving Enoxaparin, blood was collected at additional time points (25 minutes and 30 minutes). Blood samples collected before the UFH, Enoxaparin or Tinzaparin infusion were used as a base control. […] Each data point shown reflects an average and standard deviation from five rats. […]
# LMWH Tinzaparin = experiment: Thromboelastography (TEG), neutralization of LMWH Tinzaparin in whole blood; format: cell-based; settings: human whole blood; for clot strength (maximum amplitude, MA) with Tinzaparin: antidote at higher concentration (0.25 mg/ml)
# Protocol: (§1) This example examines thromboelastography in the presence of various heparin binders. Thromboelastography (TEG) provides an in vitro method for monitoring of the evolution of the viscoelastic properties and coagulation kinetics of blood as clotting proceeds. The principle components of the TEG are a cylindrical cup and a bob suspended in the cup from a weak torsion wire. The warmed cup oscillates over a 10 second period through an angle of 4° 45′. Blood is added and a torque is transmitted to the bob as the gel forms. The rate of clot formation, the strength of the clot, and the rate of clot lysis are reflected in the shape traced out by the maxima in the bob oscillation as a function of time (the trace of the TEG). The clot's physical properties, i.e. rate of clot formation, clot strength, and stability are dependent on the interaction of fibrinogen, platelets, and plasma proteins. TEG studies yield the cumulative effect of several components of coagulation (global homeostasis) as a function of time.
# To carry out TEG experiments, citrate anti-coagulated whole blood with heparin or heparin derivatives added are incubated with buffered HBSPCM polymers (sodium citrate or saline) for 1 minute before recalcification at 37° C. Clot formation kinetics are monitored in a TEG machine (350 μl whole blood+35 μl polymer or control solution) at 37° C.
# The coagulation time (FIG. 7A) and maximum clot strength, or maximum amplitude (MA) (FIG. 7B) are shown. Citrated whole blood was added to UFH or Tinzaparin (0.5 U/ml) and re-calcified at 37° C. in a TEG cup and monitored using a TEG machine. JNK-1 polymers or protamine at different concentrations were used as neutralizing agents.
# Enoxaparin = experiment: Thromboelastography (TEG), neutralization of Enoxaparin in whole blood; format: cell-based; settings: human whole blood; JNK-5 and JNK-6 at 0.1 mg/ml
# Protocol: as §1
# (§2) To carry out TEG experiments, citrate anti-coagulated whole blood with heparin or heparin derivatives added are incubated with buffered HBSPCM polymers (sodium citrate or saline) for 1 minute before recalcification at 37° C. Clot formation kinetics are monitored in a TEG machine (350 μl whole blood+35 μl polymer or control solution) at 37° C. […]
# complement system = experiment: Complement activation, CH50 sheep erythrocyte lysis assay; format: biochemical; settings: serum, 0.05 and 0.5 mg/mL, 1 h, 37° C
# Protocol: The level of complement activation was measured by a CH50 sheep erythrocyte lysis assay. Ten microliter of each of the 0.5 and 5 mg/mL polymers or protamine was mixed with 90 μL of serum for 1 h at 37° C. The final concentration of polymer/protamine to serum was 0.05 and 0.5 mg/mL. One mg/mL heat-activated human IgG and 5 mM EDTA, after mixing with serum, were the positive and negative controls, respectively, for the study. 60 μL of post-incubation serum/polymer or protamine mixture was diluted by 120 μL of GVB^2+ (CompTech). Seventy-five microliter of GVB^2+ diluted serum/polymer or protamine mixture was incubated for 1 h at 37° C. with 75 μL of Ab-sensitized sheep erythrocyte (CompTech). The reaction was stopped by addition of 300 μL cold GVB-EDTA to each sample. The samples were centrifuged and the optical density of supernatant was measured at 540 nm. One hundred percent lysis of the sheep erythrocyte was done by dH2O. The percentage of complement activation was calculated by 100-% lysis of sheep erythrocytes.
# platelets = experiment: Platelet activation of 23 kDa HBSPCM polymers (CD62-PE, flow cytometry); format: cell-based; settings: PRP, 0.5 mg/mL, 1 h, 37° C
# Protocol: The level of platelet activation was quantified by flow cytometry. Ninety microliter of PRP was incubated at 37° C. with 10 μL of 5 mg/mL of polymer or protamine (final concentration 0.5 mg/mL). After 1 h, aliquots of the incubation mixtures were removed for assessment of the platelet activation state. Five microliter of post-incubation platelet/polymer or protamine mixture, diluted in HEPES buffer, was incubated for 20 minutes in the dark with 5 μL of monoclonal anti-CD62-PE (Immunotech). The samples were then stopped with 0.5 mL of phosphate-buffered saline solution. The level of platelet activation was analyzed in a BD FACSCanto II flow cytometer (Becton Dickinson) by gating platelets specific events based on their FITC-CD42 fluorescence and light scattering profile. Activation of platelets was expressed as the percentage of platelet activation marker CD62-PE fluorescence detected in the 10,000 total events counted. Duplicate measurements were done, the mean of which was reported. Controls were done for the flow cytometric analysis. One U/ml of bovine thrombin (Sigma) was used as a positive control, and PE conjugated goat anti-mouse IgG polyclonal antibodies (Immunotech) was used as the non-specific binding control.
# blood coagulation = experiment: Blood compatibility by thromboelastograph (TEG); format: cell-based; settings: polymer concentration 0.5 mg/ml
# Protocol: as §1, §2
# LMWH Enoxaparin = experiment: APTT assay, neutralization of LMWH Enoxaparin in citrate plasma; format: biochemical, human; settings: Enoxaparin 2.0 U/ml or 1.14 IU/mL, 0.001 to 0.25 mg/ml
# Protocol: Citrate plasma was anticoagulated with 2.0 U/ml UFH, Enoxaparin and Tinzaparin and was treated with different concentrations of the HBSPCM polymers and protamine (0.001 to 0.25 mg/ml). The APTT was measured for each sample.
# Citrate plasma was anticoagulated with UFH (2.0 IU/mL), Enoxaparin (2.0 IU/mL) and Tinzaparin (1.14 IU/mL) and was titrated with different concentrations of the HBSPCM polymers and protamine (0.001 to 0.25 mg/ml). The APTT was measured for each sample.
# Ability of HBSPCM polymers JNK-9, JNK-10 and JNK-11 was studied for the range of concentration from 0.01 to 0.25 mg/mL prepared in 0.15 M saline. Citrated blood was spun at 3000 RPM for 10 min to obtain platelet poor plasma (PPP). The PPP was then heparinized by adding 45 μL of heparin (UFH, LMWH etc.) to 2200 μL of PPP final concentration of 2.0 IU/mL for UFH and Tinzaparin and 1.14 IU/mL for Enoxaparin. Normal control was prepared by adding 25 μL of 0.15 M saline to 250 μL of PPP. 25 μL of each antidote solution (polymer or protamine) was added to 225 μL of heparinized PPP. 250 μL of APTT reagent (actin FSL) was then added and samples were incubated for 3 min at 37° C. 250 μL of normal control was combined with 250 μL of APTT reagent and also incubated for 3 min. 50 μL of 0.025M CaCl2 was added to 100 μL aliquots of normal control and sample (in triplicate). […]
# UFH = experiment: Anti Xa neutralization of UFH in platelet poor plasma; format: biochemical, human; settings: One IU UFH per ml in platelet poor plasma
# Protocol: Both JNK-1 and JNK-2 result in greater neutralization of unfractionated heparin at two doses (50 and 100 μg/ml), Tinzaparin (LMWH) and Enoxaparin (LMWH).
substance,measurement,setting,value
protamine,neutralization of anticoagulant activity of Tinzaparin in rats (anti-Xa),Tinzaparin,could not completely neutralize the LMWH
same,"LMWH Tinzaparin neutralization (TEG: coagulation time, clot strength)","LMWH Tinzaparin; Tinzaparin 0.5 U/ml, re-calcified at 37° C",not effective at neutralizing UFH or LMWH Tinzaparin and Enoxaparin in terms of the time to clot formation
same,"clot strength (maximum amplitude, MA) with Tinzaparin",LMWH Tinzaparin,did not form a stable clot
same,"clot strength (maximum amplitude, MA) with Tinzaparin",LMWH Tinzaparin; listed as protamine,not at all at a high dose
same,Enoxaparin neutralization (TEG),Enoxaparin,not effective at neutralizing UFH or LMWH Tinzaparin and Enoxaparin in terms of the time to clot formation
same,complement activation (CH50),complement system,significant complement activation
same,platelet activation (CD62-PE),platelets,significant levels of platelet activation
same,"coagulation time (R) and kinetics parameter (K), TEG",blood coagulation,different blood coagulation profile
same,LMWH Enoxaparin neutralization (APTT),LMWH Enoxaparin,neutralizes UFH and LMWH only in the narrow concentration range
same,Anti Xa Neutralization (%) of UFH at 50 μg/ml,UFH; 50 μg/ml,84%
same,Anti Xa Neutralization (%) of UFH at 100 μg/ml,UFH; 100 μg/ml,85 ± 0%
